A value given as a limit tells only on which side of the number the result lay.

The source of these data is US9376442B2, “Methylpyrrolopyrimidinecarboxamides” (Takeda GmbH, priority 2009, dated 2016).

This assay concerns the target T1, PDE5A1 (Homo sapiens, UniProt O76074).
T1 construct: from tissue; host or cells: human platelets from fresh donor blood (10,000 x g supernatant of sonicated lysate)
Kind of assay: Inhibition of type 5 phosphodiesterase (PDE5) activity, modified SPA test with human platelet lysate. Conditions: 0.5 μM cGMP, read-out: PDE5A1 inhibitory values [measured as −log IC50 (mol/l)] (converted). It counts as biochemical. Summed up: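 Enzyme source is lysate from human platelets (10,000 g supernatant). Compound preincubated 5 min at 37° C in Tris pH 7.4 containing 1 μM motapizone and 10 nM of a PDE2 inhibitor. Reaction started with 0.5 μM cGMP ([3H] tracer) and run 15 min; SPA read-out, IC50 by non-linear regression.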

Turning to `CCOc1ccc(F)cc1-c1ncnc2c(C(=O)NC3CCN(C(=O)CC)CC3)c(C)[nH]c12` [Example E53, 4-(2-Ethoxy-5-fluorophenyl)-6-methyl-N-(1-propanoylpiperidin-4-yl)-5H-pyrrolo[3,2-d]pyrimidine-7-carboxamide], the IC50 is 1 to 10 nM. Consider `CCOc1ccc(F)cc1-c1ncnc2c(C(=O)NC3CCN(C(=O)COC)CC3)c(C)[nH]c12` [Example E54, 4-(2-Ethoxy-5-fluorophenyl)-N-[1-(methoxyacetyl)piperidin-4-yl]-6-methyl-5H-pyrrolo[3,2-d]pyrimidine-7-carboxamide], for which the IC50 was 1 to 10 nM. Take `COc1ccc(-c2ncnc3c(C(=O)NC4CCN(C(C)=O)CC4)c(C)[nH]c23)c(OCC2CC2)c1` [Example E55, N-(1-acetylpiperidin-4-yl)-4-[2-(cyclopropylmethoxy)-4-methoxyphenyl]-6-methyl-5H-pyrrolo[3,2-d]pyrimidine-7-carboxamide]: the IC50 was under 1 nM.

Turning to `CCC(=O)N1CCC(NC(=O)c2c(C)[nH]c3c(-c4ccc(OC)cc4OCC4CC4)ncnc23)CC1` [Example E56, 4-[2-(Cyclopropylmethoxy)-4-methoxyphenyl]-6-methyl-N-(1-propionylpiperidin-4-yl)-5H-pyrrolo[3,2-d]pyrimidine-7-carboxamide], the IC50 is under 1 nM.

With `COCC(=O)N1CCC(NC(=O)c2c(C)[nH]c3c(-c4ccc(OC)cc4OCC4CC4)ncnc23)CC1` [Example E57, 4-[2-(Cyclopropylmethoxy)-4-methoxyphenyl]-N-[1-(methoxyacetyl)piperidin-4-yl]-6-methyl-5H-pyrrolo[3,2-d]pyrimidine-7-carboxamide], the IC50 is under 1 nM. In the case of `COc1ccc(-c2ncnc3c(C(=O)N[C@H]4CC[C@H](NC(C)=O)CC4)c(C)[nH]c23)c(OCC2CC2)c1` [Example E58, N-(trans-4-acetamidocyclohexyl)-4-[2-(cyclopropylmethoxy)-4-methoxyphenyl]-6-methyl-5H-pyrrolo[3,2-d]pyrimidine-7-carboxamide], the IC50 is under 1 nM. With `COc1ccc(-c2ncnc3c(C(=O)N[C@H]4CC[C@@H](NC(C)=O)CC4)c(C)[nH]c23)c(OCC2CC2)c1` [Example E59, N-(cis-4-acetamidocyclohexyl)-4-[2-(cyclopropylmethoxy)-4-methoxyphenyl]-6-methyl-5H-pyrrolo[3,2-d]pyrimidine-7-carboxamide] the figure was under 1 nM. With `COc1ccc(-c2ncnc3c(C(=O)N[C@@H]4CCN(C(C)=O)C4)c(C)[nH]c23)c(OCC2CC2)c1` [Example E60, N-[(3R)-1-acetylpyrrolidin-3-yl]-4-[2-(cyclopropylmethoxy)-4-methoxyphenyl]-6-methyl-5H-pyrrolo[3,2-d]pyrimidine-7-carboxamide] the figure was under 1 nM.

Regarding `CCC(=O)N1CC[C@@H](NC(=O)c2c(C)[nH]c3c(-c4ccc(OC)cc4OCC4CC4)ncnc23)C1` [Example E61, 4-[2-(Cyclopropylmethoxy)-4-methoxyphenyl]-6-methyl-N-[(3R)-1-propionylpyrrolidin-3-yl]-5H-pyrrolo[3,2-d]pyrimidine-7-carboxamide], the IC50 is under 1 nM. The result for `COCC(=O)N1CC[C@@H](NC(=O)c2c(C)[nH]c3c(-c4ccc(OC)cc4OCC4CC4)ncnc23)C1` [Example E62, 4-[2-(Cyclopropylmethoxy)-4-methoxyphenyl]-N-[(3R)-1-(methoxyacetyl)pyrrolidin-3-yl]-6-methyl-5H-pyrrolo[3,2-d]pyrimidine-7-carboxamide] reads under 1 nM; that for `COc1ccc(OCC2CC2)c(-c2ncnc3c(C(=O)N[C@@H]4CCN(C(C)=O)C4)c(C)[nH]c23)c1` [Example E75, N-[(3R)-1-acetylpyrrolidin-3-yl]-4-[2-(cyclopropylmethoxy)-5-methoxyphenyl]-6-methyl-5H-pyrrolo[3,2-d]pyrimidine-7-carboxamide], under 1 nM. Take `CCC(=O)N1CC[C@@H](NC(=O)c2c(C)[nH]c3c(-c4cc(OC)ccc4OCC4CC4)ncnc23)C1` [Example E76, 4-[2-(Cyclopropylmethoxy)-5-methoxyphenyl]-6-methyl-N-[(3R)-1-propionylpyrrolidin-3-yl]-5H-pyrrolo[3,2-d]pyrimidine-7-carboxamide]: the IC50 is under 1 nM. With `COCC(=O)N1CC[C@@H](NC(=O)c2c(C)[nH]c3c(-c4cc(OC)ccc4OCC4CC4)ncnc23)C1` [Example E77, 4-[2-(Cyclopropylmethoxy)-5-methoxyphenyl]-N-[(3R)-1-(methoxyacetyl)pyrrolidin-3-yl]-6-methyl-5H-pyrrolo[3,2-d]pyrimidine-7-carboxamide] the figure was under 1 nM; with `CCOc1ccc(C(F)(F)F)cc1-c1ncnc2c(C(=O)NC3CCN(C(C)=O)CC3)c(C)[nH]c12` [Example E99, N-(1-acetylpiperidin-4-yl)-4-[2-ethoxy-5-(trifluoromethyl)phenyl]-6-methyl-5H-pyrrolo[3,2-d]pyrimidine-7-carboxamide], under 1 nM; with `CCOc1ccc(C(F)(F)F)cc1-c1ncnc2c(C(=O)NC3CCN(C(=O)CC)CC3)c(C)[nH]c12` [Example E100, 4-[2-Ethoxy-5-(trifluoromethyl)phenyl]-6-methyl-N-(1-propanoylpiperidin-4-yl)-5H-pyrrolo[3,2-d]pyrimidine-7-carboxamide], under 1 nM. In the case of `CCOc1ccc(C(F)(F)F)cc1-c1ncnc2c(C(=O)NC3CCN(C(=O)COC)CC3)c(C)[nH]c12` [Example E101, 4-[2-Ethoxy-5-(trifluoromethyl)phenyl]-N-[1-(methoxyacetyl)piperidin-4-yl]-6-methyl-5H-pyrrolo[3,2-d]pyrimidine-7-carboxamide], the IC50 was under 1 nM. In the case of `COc1cc(-c2ncnc3c(C(=O)NC4CCN(C(C)=O)CC4)c(C)[nH]c23)c(OCC2CC2)cc1F` [Example E102, N-(1-Acetylpiperidin-4-yl)-4-[2-(cyclopropylmethoxy)-4-fluoro-5-methoxyphenyl]-6-methyl-5H-pyrrolo[3,2-d]pyrimidine-7-carboxamide], the IC50 is under 1 nM.

As to `CCC(=O)N1CCC(NC(=O)c2c(C)[nH]c3c(-c4cc(OC)c(F)cc4OCC4CC4)ncnc23)CC1` [Example E103, 4-[2-(cyclopropylmethoxy)-4-fluoro-5-methoxyphenyl]-6-methyl-N-(1-propionylpiperidin-4-yl)-5H-pyrrolo[3,2-d]pyrimidine-7-carboxamide], the IC50 was under 1 nM. With `COCC(=O)N1CCC(NC(=O)c2c(C)[nH]c3c(-c4cc(OC)c(F)cc4OCC4CC4)ncnc23)CC1` [Example E104, 4-[2-(Cyclopropylmethoxy)-4-fluoro-5-methoxyphenyl]-N-[1-(methoxyacetyl)piperidin-4-yl]-6-methyl-5H-pyrrolo[3,2-d]pyrimidine-7-carboxamide] the figure was under 1 nM.

With `CCOC(=O)N1CCC(NC(=O)c2c(C)[nH]c3c(-c4cc(OC)c(F)cc4OCC4CC4)ncnc23)CC1` [Example E105, Ethyl 4-[({4-[2-(cyclopropylmethoxy)-4-fluoro-5-methoxyphenyl]-6-methyl-5H-pyrrolo[3,2-d]pyrimidin-7-yl}carbonyl)amino]piperidine-1-carboxylate], the IC50 is under 1 nM. With `COc1cc(-c2ncnc3c(C(=O)N[C@H]4CC[C@H](NC(C)=O)CC4)c(C)[nH]c23)c(OCC2CC2)cc1F` [Example E106, N-(trans-4-Acetamidocyclohexyl)-4-[2-(cyclopropylmethoxy)-4-fluoro-5-methoxyphenyl]-6-methyl-5H-pyrrolo[3,2-d]pyrimidine-7-carboxamide] the figure was under 1 nM. Consider `CCC(=O)N[C@H]1CC[C@H](NC(=O)c2c(C)[nH]c3c(-c4cc(OC)c(F)cc4OCC4CC4)ncnc23)CC1` [Example E107, 4-[2-(Cyclopropylmethoxy)-4-fluoro-5-methoxyphenyl]-6-methyl-N-[trans-4-(propionylamino)cyclohexyl]-5H-pyrrolo[3,2-d]pyrimidine-7-carboxamide], for which the IC50 was under 1 nM. For the compound `COCC(=O)N[C@H]1CC[C@H](NC(=O)c2c(C)[nH]c3c(-c4cc(OC)c(F)cc4OCC4CC4)ncnc23)CC1` [Example E108, 4-[2-(Cyclopropylmethoxy)-4-fluoro-5-methoxyphenyl]-N-{trans-4-[(methoxyacetyl)amino]cyclohexyl}-6-methyl-5H-pyrrolo[3,2-d]pyrimidine-7-carboxamide], the IC50 is under 1 nM. As for `CCOC(=O)N[C@H]1CC[C@H](NC(=O)c2c(C)[nH]c3c(-c4cc(OC)c(F)cc4OCC4CC4)ncnc23)CC1` [Example E109, Ethyl {trans-4-[({4-[2-(cyclopropylmethoxy)-4-fluoro-5-methoxyphenyl]-6-methyl-5H-pyrrolo[3,2-d]pyrimidin-7-yl}carbonyl)amino]cyclohexyl}carbamate], the IC50 was under 1 nM. With `COc1cc(-c2ncnc3c(C(=O)N[C@H]4CC[C@@H](NC(C)=O)CC4)c(C)[nH]c23)c(OCC2CC2)cc1F` [Example E110, N-(cis-4-Acetamidocyclohexyl)-4-[2-(cyclopropylmethoxy)-4-fluoro-5-methoxyphenyl]-6-methyl-5H-pyrrolo[3,2-d]pyrimidine-7-carboxamide], the IC50 is under 1 nM.

Regarding `CCC(=O)N[C@H]1CC[C@@H](NC(=O)c2c(C)[nH]c3c(-c4cc(OC)c(F)cc4OCC4CC4)ncnc23)CC1` [Example E111, 4-[2-(Cyclopropylmethoxy)-4-fluoro-5-methoxyphenyl]-6-methyl-N-[cis-4-(propionylamino)cyclohexyl]-5H-pyrrolo[3,2-d]pyrimidine-7-carboxamide], the IC50 is under 1 nM.

For `COCC(=O)N[C@H]1CC[C@@H](NC(=O)c2c(C)[nH]c3c(-c4cc(OC)c(F)cc4OCC4CC4)ncnc23)CC1` [Example E112, 4-[2-(Cyclopropylmethoxy)-4-fluoro-5-methoxyphenyl]-N-{cis-4-[(methoxyacetyl)amino]cyclohexyl}-6-methyl-5H-pyrrolo[3,2-d]pyrimidine-7-carboxamide], the IC50 is under 1 nM.
